Structures can show the parent of a compound that is named as a salt.

The target of one assay is T1, SF9 affinity purified rat FPT (Rattus norvegicus, UniProt Q02293+Q04631).
T1 construct: made in house; host or cells: Sf9 insect cells
Nature of the assay: PFT (farnesyl protein transferase) inhibitory activity, radiolabeled farnesyl pyrophosphate / biotinyl peptide bead assay. The format is biochemical. The settings on record: Examples 56-74, parallel synthesis array: single test; values adjusted to account for the purity of the sample; read-out: FTase, IC50. As to the method: The protein:farnesyl transferase (PFT) or farnesyl protein transferase (FPT) inhibitory activity of compounds of the present invention were assayed in HEPES buffer (pH 7.4) containing 5 mM potassium phosphate and 20 μM ZnCl2. The solution also contained 5 mM DTT (dithiothreitol), 5 mM MgCl2, and 0.1% PEG 8000. Assays were performed in 96 well plates (Wallec) and employed solutions composed of varying concentrations of a compound of the present invention in 10% DMSO (dimethylsulfoxide). Upon addition of both substrates, radiolabeled farnesyl pyrophosphate ([1^3H], specific activity 15-30 Ci/mmol, final concentration 134 nM) and (biotinyl)-Ahe-Thr-Lys-Cys-Val-Ile-Met ([3aS[3a alpha, 4 beta, 6a alpha]-hexahydro-2-oxo-1H-thieno[3,4-d]imidazole-5-pentanoic acid]-[7-aminoheptanoic acid]-Thr-Lys-Cys-Val-Ile-Met) (Ahe is 7-aminoheptanoic acid, Thr is threonine, Lys is lysine, Cys is cysteine, Val is valine, Ile is isoleucine, and Met is methionine) (final concentration 0.2 μM), the enzyme reaction was started by addition of SF9 affinity purified rat FPT. After incubation at 30° C. for 30 minutes, the reaction was terminated by diluting the reaction 2.5-fold with a stop buffer containing 1.5 M magnesium acetate, 0.2 M H3PO4, 0.5% BSA (bovine serum albumin), and strepavidin beads (Amersham) at a concentration of 1.3 mg/mL. After allowing the plate to settle for 30 minutes at room temperature, radioactivity was quantitated on a microbeta counter (Model 1450, Wallec). The assay was also carried out without 5 mM potassium phosphate.
For the compound `O=C1/C(=C/c2ccccc2Cl)CCc2cc(OCCn3ccnc3)ccc21` [Example 56, 2-[(E)-1-(2-Chlorophenyl)methylidene]-6-[2-(1H-1-imidazolyl)ethoxy]-1,2,3,4-tetrahydro-1-naphthalenone], the 50% inhibitory concentration (IC50) amounted to 360 nM.
On the same count and under the same terms, with `O=C1/C(=C/c2cccc(Cl)c2)CCc2cc(OCCn3ccnc3)ccc21` [Example 57, 2-[(E)-1-(3-Chlorophenyl)methylidene]-6-[2-(1H-1-imidazolyl)ethoxy]-1,2,3,4-tetrahydro-1-naphthalenone] the figure was 420 nM.
Turning to `O=C1/C(=C/c2ccc(Cl)cc2)CCc2cc(OCCn3ccnc3)ccc21` [Example 58, 2-[(E)-1-(4-Chlorophenyl)methylidene]-6-[2-(1H-1-imidazolyl)ethoxy]-1,2,3,4-tetrahydro-1-naphthalenone], the IC50 came to 170 nM.
Still for that read-out and setting: the same measure for `O=C1/C(=C/c2ccc3c(c2)OCO3)CCc2cc(OCCn3ccnc3)ccc21` [Example 59, 2-[(E)-1-(1,3-Benzodioxol-5-yl)methylidene]-6-[2-(1H-1-imidazolyl)ethoxy]-1,2,3,4-tetrahydro-1-naphthalenone]: 210 nM.
As for `O=C1/C(=C/c2ccc(F)cc2)CCc2cc(OCCn3ccnc3)ccc21` [Example 60, 2-[(E)-1-(4-Fluorophenyl)methylidene]-6-[2-(1H-1-imidazolyl)ethoxy]-1,2,3,4-tetrahydro-1-naphthalenone], the half-inhibitory concentration (IC50) was found to be 180 nM.
With `O=C1/C(=C/c2cccc(Cl)c2Cl)CCc2cc(OCCn3ccnc3)ccc21` [Example 61, 2-[(E)-1-(2,3-Dichlorophenyl)methylidene]-6-[2-(1H-1-imidazolyl)ethoxy]-1,2,3,4-tetrahydro-1-naphthalenone], the IC50 came out at 570 nM.
For `O=C1/C(=C/c2c(Cl)cccc2Cl)CCc2cc(OCCn3ccnc3)ccc21` [Example 62, 2-[(E)-1-(2,6-Dichlorophenyl)methylidene]-6-[2-(1H-1-imidazolyl)ethoxy]-1,2,3,4-tetrahydro-1-naphthalenone], the IC50 stood at 540 nM.
For `O=C1/C(=C/c2ccc(Cl)c(Cl)c2)CCc2cc(OCCn3ccnc3)ccc21` [Example 63, 2-[(E)-1-(3,4-Dichlorophenyl)methylidene]-6-[2-(1H-1-imidazolyl)ethoxy]-1,2,3,4-tetrahydro-1-naphthalenone], the half-maximal inhibitory concentration (IC50) was 890 nM.
Turning to `O=C1/C(=C/c2cc(Cl)cc(Cl)c2)CCc2cc(OCCn3ccnc3)ccc21` [Example 64, 2-[(E)-1-(3,5-Dichlorophenyl)methylidene]-6-[2-(1H-1-imidazolyl)ethoxy]-1,2,3,4tetrahydro-1-naphthalenone], the half-maximal inhibitory concentration (IC50) stood at 570 nM.
Still for that read-out and setting: with `COc1ccc(OC)c(/C=C2\CCc3cc(OCCn4ccnc4)ccc3C2=O)c1` [Example 65] the figure was 630 nM; with `COc1cccc(/C=C2\CCc3cc(OCCn4ccnc4)ccc3C2=O)c1OC` [Example 66, 2-[(E)-1-(2,3-Dimethoxyphenyl)methylidene]-6-[2-(1H-1-imidazolyl)ethoxy]-1,2,3,4-tetrahydro-1-naphthalenone], 1840 nM.
Take `O=C1/C(=C/c2ccccc2C(F)(F)F)CCc2cc(OCCn3ccnc3)ccc21` [Example 67, 6-[2-(1H-1-Imidazolyl)ethoxy]-2-(E)-1-[2-(trifluoromethyl)phenyl]methylidene-1,2,3,4-tetrahydro-1-naphthalenone]: the IC50 came out at 710 nM.
With `COc1cc(OC)c(/C=C2\CCc3cc(OCCn4ccnc4)ccc3C2=O)c(OC)c1` [Example 68, 6-[2-(1H-1-Imidazolyl)ethoxy]-2-[(E)-1-(2,4,6-trimethoxyphenyl)methylidene]-1,2,3,4-tetrahydro-1-naphthalenone], the half-maximal inhibitory concentration (IC50) came to 590 nM.
As for `COc1ccc(/C=C2\CCc3cc(OCCn4ccnc4)ccc3C2=O)c(OC)c1OC` [Example 69, 6-[2-(1H-1-Imidazolyl)ethoxy]-2-[(E)-1-(2,3,4-trimethoxyphenyl)methylidene]-1,2,3,4-tetrahydro-1-naphthalenone], the IC50 worked out at 1300 nM.
With `O=C1/C(=C/c2ccc(I)cc2)CCc2cc(OCCn3ccnc3)ccc21` [Example 70, 6-[2-(1H-1-Imidazolyl)ethoxy]-2-[(E)-1-(4-iodophenyl)methylidene]-1,2,3,4-tetrahydro-1-naphthalenone], the IC50 worked out at 320 nM.
On to `CN(C)c1ccc(/C=C2\CCc3cc(OCCn4ccnc4)ccc3C2=O)cc1` [Example 71], for which the IC50 was determined as 110 nM.
Still for that read-out and setting: the same measure for `CC(C)(C)c1ccc(/C=C2\CCc3cc(OCCn4ccnc4)ccc3C2=O)cc1` [Example 72, 2-(E)-1-[4-(tert-Butyl)phenyl]methylidene-6-[2-(1H-1-imidazolyl)ethoxy]-1,2,3,4-tetrahydro-1-naphthalenone]: 1200 nM.
For the compound `COc1cccc(/C=C2\CCc3cc(OCCn4ccnc4)ccc3C2=O)c1` [Example 73, 6-[2-(1H-1-Imidazolyl)ethoxy]-2-[(E)-1-(3-methoxyphenyl)methylidene]-1,2,3,4-tetrahydro-1-naphthalenone], the half-inhibitory concentration (IC50) is 1140 nM.

Still in this assay, the particulars now being: average of two tests unless n is given in parentheses; read-out: FTase, IC50.
On to `O=C1CCCc2cc(OCCn3ccnc3)ccc21` [Example 1, 6-(2-Imidazole-1-yl-ethoxy)-3,4-dihydro-2H-naphthalen-1-one], for which the half-maximal inhibitory concentration (IC50) is 2000 nM.
For the compound `Cc1nccn1CCOc1ccc2c(c1)CCCC2=O` [Example 2, 6-[2-(2-Methyl-imidazole-1-yl)-ethoxy]-3,4-dihydro-2H-naphthalen-1-one], the half-inhibitory concentration (IC50) is 8400 nM.
Still for that read-out and setting: with `O=C1C(=Cc2ccccn2)CCc2cc(OCCn3ccnc3)ccc21` [Example 3, 6-(2-Imidazole-1-yl-ethoxy)-2-pyridin-2-ylmethylene-3,4-dihydro-2H-naphthalen-1-one] the figure was 2400 nM.
Turning to `CCN(CC)CCOc1ccc(C=C2CCc3cc(OCCn4ccnc4)ccc3C2=O)cc1` [Example 8, 2-[4-(2-Diethylamino-ethoxy)-benzylidene]-6-(2-imidazole-1-yl-ethoxy)-3,4-dihydro-2H-naphthalen-1-one], the IC50 was determined as 11900 nM.
On to `O=C1C(=Cc2ccccc2)CCc2cc(OCCn3ccnc3)ccc21` [Example 9, 2-Benzylidene-6-(2-imidazole-1-yl-ethoxy)-3,4-dihydro-2H-naphthalen-1-one], for which the IC50 amounted to 240 nM.
Consider `COc1ccccc1C=C1CCc2cc(OCCn3ccnc3)ccc2C1=O` [Example 25, 6-(2-Imidazol-1-yl-ethoxy)-2-(2-methoxy-benzylidene)-3,4-dihydro-2H-naphthalen-1-one], for which the IC50 came out at 2500 nM.
`O=C1CCCc2cc(OCCc3c[nH]cn3)ccc21` [Example 27, 6-[2-(1H-Imidazole4-yl)-ethoxy]-3,4-dihydro-2H-naphthalen-1-one, monohydrochloride]: the IC50 was 1790 nM.
Regarding `NC(=O)c1ccc(C=C2CCc3cc(OCCc4c[nH]cn4)ccc3C2=O)cc1` [Example 33, 4-{6-[2-(1H-Imidazole-4-yl)-ethoxy]-1-oxo-3,4-dihydro-1H-naphthalen-2-ylidenemethyl}-benzamide, monohydrochloride], the IC50 amounted to 7300 nM.
In the case of `O=C(O)c1ccc(C=C2CCc3cc(OCCc4c[nH]cn4)ccc3C2=O)cc1` [Example 35, 4-{6-[2-(1H-Imidazole-4-yl)-ethoxy]-1-oxo-3,4-dihydro-1H-naphthalen-2-ylidenemethyl}-benzoic acid, ditrifluoroacetate], the IC50 came to 2000 nM.
The same measure, in the same setting: the same measure for `O=C1C(=Cc2ccc(Cl)s2)CCc2cc(OCCc3c[nH]cn3)ccc21` [Example 36, 2-(5-Chloro-thiophen-2-ylmethylene)-6-[2-(1H-imidazole-4-yl)-ethoxy]-3,4-dihydro-2H-naphthalen-1-one, hydrochloride]: 3500 nM.
For the compound `O=C(O)c1ccc(C=C2CCc3cc(OCCc4c[nH]cn4)ccc3C2=O)s1` [Example 38, 5-{6-[2-(1H-Imidazol-4-yl)-ethoxy]-1-oxo-3,4-dihydro-1H-naphthalen-2-ylidenemethyl}-thiophene-2-carboxylic acid], the half-maximal inhibitory concentration (IC50) came out at 4300 nM.
For the compound `CC(=C1CCc2cc(OCCc3c[nH]cn3)ccc2C1=O)c1ccccc1` [Example 40, 6-[2-(1H-Imidazole-4-yl)-ethoxy]-2-(1-phenyl-ethylidene)-3,4-dihydro-2H-naphthalen-1-one], the IC50 amounted to 4700 nM.
Still for that read-out and setting: with `O=C1/C(=C/C2CCCCC2)CCc2cc(OCCn3ccnc3)ccc21` [Example 45, 2-[(E)-1-Cyclohexylmethylidene]-6-[2-(1H-1-imidazolyl)ethoxy]-1,2,3,4-tetrahydro-1-naphthalenone, hydrochloride] the figure was 5800 nM; with `O=C1/C(=C/c2cccs2)COc2cc(OCCn3ccnc3)ccc21` [Example 52, 7-[2-(1H-1-Imidazolyl)ethoxy]-3-[(E)-1-(2-thienyl)methylidene]4-chromanone], 220 nM.
For `CC(C)(CNC(=O)CON=C1CCCc2cc(OCCn3ccnc3)ccc21)c1ccccc1` [Example 55, 2-[6-(2-Imidazol-1-yl-ethoxy)-3,4-dihydro-2H-naphthalen-1-ylideneaminooxy]-N-(2-methyl-2-phenyl-propyl)-acetamide], the IC50 came to 600 nM.

By IC50 is commonly meant the midpoint of a concentration-inhibition curve.
